Assay results taken from patent US10961278B2, “Vancomycin derivative, preparation method, pharmaceutical composition and use thereof” (SHANGHAI INSTITUTE OF MATERIA MEDICA, CHINESE ACADEMY OF …, priority 2016, dated 2021).
In brackets after ≈: the same amount, converted by molar mass. Where two headings read alike, the source gives them in different places.

What was measured:
[1] = test system: vancomycin-sensitive Staphylococcus aureus Newman strain; assay: In vitro antibacterial activity assay (MIC, CLSI dilution method); type: cell-based; conditions: Staphylococcus aureus, 16 h, S. aureus Newman, 37° C.
[2] = test system: vancomycin-middle resistant Staphylococcus aureus Mu50 strain; assay: as above; type: cell-based
[3] = Staphylococcus aureus, 16 h, S. aureus Mu50, 37° C., read-out: MIC Mu50
[4] = Staphylococcus aureus, 16 h, read-out: MIC Mu50
[5] = Staphylococcus aureus; S. aureus Mu50, 37° C., 16 h; read-out: MIC Mu50

SMILES	MIC ([1]; NEWMAN) [µg/mL]	MIC [2, 3] [µg/mL]	MIC [1] [µg/mL]	MIC [2, 4] [µg/mL]	MIC [2, 5] [µg/mL]
CN[C@H](CC(C)C)C(=O)N[C@H]1C(=O)N[C@@H](CC(N)=O)C(=O)N[C@H]2C(=O)N[C@H]3C(=O)N[C@H](C(=O)NC(C(=O)NCCCN(C)C)c4cc(O)c(CNCCCNC(=O)[C@H](O)[C@@H](O)[C@H](O)[C@H](O)CO)c(O)c4-c4cc3ccc4O)[C@H](O)c3ccc(c(Cl)c3)Oc3cc2cc(c3OC2O[C@H](CO)C(O)C(O)[C@H]2O[C@H]2CC(C)(NCc3ccc(-c4ccc(Cl)cc4)cc3)[C@H](O)C(C)O2)Oc2ccc(cc2Cl)[C@H]1O (stereo partly shown) [Van022]	1 (≈ 0.5 µM)	2 (≈ 1 µM)			
CN[C@H](CC(C)C)C(=O)N[C@H]1C(=O)N[C@@H](CC(N)=O)C(=O)N[C@H]2C(=O)N[C@@H]3C(=O)N[C@H](C(=O)N[C@H](C(=O)NCCCNC(=O)[C@H](O)[C@@H](O)[C@H](O)[C@H](O)CO)c4cc(O)cc(O)c4-c4cc3ccc4O)[C@H](O)c3ccc(c(Cl)c3)Oc3cc2cc(c3OC2O[C@H](CO)C(O)C(O)[C@H]2O[C@H]2CC(C)(NCc3ccc(-c4ccc(Cl)cc4)cc3)[C@H](O)C(C)O2)Oc2ccc(cc2Cl)[C@H]1O (stereo partly shown) [Van023]			2 (≈ 1.06 µM)	4 (≈ 2.12 µM)	
CCCCCCCCCCNC1(C)C[C@H](O[C@H]2C(Oc3c4cc5cc3Oc3ccc(cc3Cl)[C@@H](O)[C@@H](NC(=O)[C@@H](CC(C)C)NC)C(=O)N[C@@H](CC(N)=O)C(=O)N[C@H]5C(=O)N[C@H]3C(=O)N[C@H](C(=O)N[C@H](C(=O)O)c5cc(O)c(CNCCCNC(=O)[C@H](O)[C@@H](O)[C@H](O)[C@H](O)CO)c(O)c5-c5cc3ccc5O)[C@H](O)c3ccc(c(Cl)c3)O4)O[C@H](CO)C(O)C2O)CC(C)[C@H]1O (stereo partly shown) [Van024]	0.125 (≈ 0.0675 µM)	0.5 (≈ 0.27 µM)			
CCCCCCCCCCC(=O)NC1(C)C[C@H](O[C@H]2C(Oc3c4cc5cc3Oc3ccc(cc3Cl)[C@@H](O)[C@@H](NC(=O)[C@@H](CC(C)C)NC)C(=O)N[C@@H](CC(N)=O)C(=O)N[C@H]5C(=O)N[C@H]3C(=O)N[C@H](C(=O)N[C@H](C(=O)O)c5cc(O)c(CNCCCNC(=O)[C@H](O)[C@@H](O)[C@H](O)[C@H](O)CO)c(O)c5-c5cc3ccc5O)[C@H](O)c3ccc(c(Cl)c3)O4)O[C@H](CO)C(O)C2O)CC(C)[C@H]1O (stereo partly shown) [Van025]	16 (≈ 8.51 µM)	32 (≈ 17 µM)			
CCCCCCCCCC(=O)NC1(C)C[C@H](O[C@H]2C(Oc3c4cc5cc3Oc3ccc(cc3Cl)[C@@H](O)[C@@H](NC(=O)[C@@H](CC(C)C)NC)C(=O)N[C@@H](CC(N)=O)C(=O)N[C@H]5C(=O)N[C@H]3C(=O)N[C@H](C(=O)N[C@H](C(=O)O)c5cc(O)c(CNCCCNC(=O)[C@H](O)[C@@H](O)[C@H](O)[C@H](O)CO)c(O)c5-c5cc3ccc5O)[C@H](O)c3ccc(c(Cl)c3)O4)O[C@H](CO)C(O)C2O)CC(C)[C@H]1O (stereo partly shown) [Van026]	32 (≈ 17.2 µM)	64 (≈ 34.3 µM)			
CN[C@H](CC(C)C)C(=O)N[C@H]1C(=O)N[C@@H](CC(N)=O)C(=O)N[C@H]2C(=O)N[C@H]3C(=O)N[C@H](C(=O)N[C@H](C(=O)O)c4cc(O)c(CNCCCNC(=O)[C@H](O)[C@@H](O)[C@H](O)[C@H](O)CO)c(O)c4-c4cc3ccc4O)[C@H](O)c3ccc(c(Cl)c3)Oc3cc2cc(c3OC2O[C@H](CO)C(O)C(O)[C@H]2O[C@@H]2CC(C)[C@@H](O)C(C)(NCc3ccc(C#C[Si](C)(C)C)cc3)C2)Oc2ccc(cc2Cl)[C@H]1O (stereo partly shown) [Van028]			1 (≈ 0.527 µM)		2 (≈ 1.05 µM)
CN[C@H](CC(C)C)C(=O)N[C@H]1C(=O)N[C@@H](CC(N)=O)C(=O)N[C@H]2C(=O)N[C@@H]3C(=O)N[C@H](C(=O)N[C@H](C(=O)O)c4cc(O)c(CNC5C(O)OC(CO)[C@H](O)[C@@H]5O)c(O)c4-c4cc3ccc4O)[C@H](O)c3ccc(c(Cl)c3)Oc3cc2cc(c3O[C@@H]2O[C@H](CO)C(O)C(O)[C@H]2O[C@H]2CC(C)(NCc3ccc(C#C[Si](C)(C)C)cc3)[C@H](O)[C@H](C)O2)Oc2ccc(cc2Cl)[C@H]1O (stereo partly shown) [Van033]			0.5 (≈ 0.274 µM)		2 (≈ 1.09 µM)
CCCCCCCCCCNC1(C)C[C@H](O[C@@H]2C(O)C(O)[C@@H](CO)O[C@H]2Oc2c3cc4cc2Oc2ccc(cc2Cl)[C@@H](O)[C@@H](NC(=O)[C@@H](CC(C)C)NC)C(=O)N[C@@H](CC(N)=O)C(=O)N[C@H]4C(=O)N[C@@H]2C(=O)N[C@H](C(=O)N[C@H](C(=O)O)c4cc(O)c(CNC5C(O)OC(CO)[C@H](O)[C@@H]5O)c(O)c4-c4cc2ccc4O)[C@H](O)c2ccc(c(Cl)c2)O3)O[C@@H](C)[C@H]1O (stereo partly shown) [Van034]	≤ 0.0625	0.25 (≈ 0.14 µM)			
C#Cc1ccc(CNC2(C)C[C@H](O[C@@H]3C(O)C(O)[C@@H](CO)O[C@H]3Oc3c4cc5cc3Oc3ccc(cc3Cl)[C@@H](O)[C@@H](NC(=O)[C@@H](CC(C)C)NC)C(=O)N[C@@H](CC(N)=O)C(=O)N[C@H]5C(=O)N[C@@H]3C(=O)N[C@H](C(=O)N[C@H](C(=O)O)c5cc(O)c(CNC6C(O)OC(CO)[C@H](O)[C@@H]6O)c(O)c5-c5cc3ccc5O)[C@H](O)c3ccc(c(Cl)c3)O4)O[C@@H](C)[C@H]2O)cc1 (stereo partly shown) [Van035]			2 (≈ 1.14 µM)	8 (≈ 4.56 µM)	
CCCCCc1ccc(CNC2(C)C[C@H](O[C@@H]3C(O)C(O)[C@@H](CO)O[C@H]3Oc3c4cc5cc3Oc3ccc(cc3Cl)[C@@H](O)[C@@H](NC(=O)[C@@H](CC(C)C)NC)C(=O)N[C@@H](CC(N)=O)C(=O)N[C@H]5C(=O)N[C@@H]3C(=O)N[C@H](C(=O)N[C@H](C(=O)O)c5cc(O)c(CNC6C(O)OC(CO)[C@H](O)[C@@H]6O)c(O)c5-c5cc3ccc5O)[C@H](O)c3ccc(c(Cl)c3)O4)O[C@@H](C)[C@H]2O)cc1 (stereo partly shown) [Van036]			0.25 (≈ 0.139 µM)	0.5 (≈ 0.278 µM)	

Now from value to compound, other results behind:

MIC ([1]; NEWMAN) [µg/mL]	MIC [2, 3] [µg/mL]	SMILES	MIC [1] [µg/mL]	MIC [2, 4] [µg/mL]	MIC [2, 5] [µg/mL]
1 (≈ 0.54 µM)	4 (≈ 2.16 µM)	CN[C@H](CC(C)C)C(=O)N[C@H]1C(=O)N[C@@H](CC(N)=O)C(=O)N[C@H]2C(=O)N[C@H]3C(=O)N[C@H](C(=O)N[C@H](C(=O)O)c4cc(O)c(CNCCCNC(=O)[C@H](O)[C@@H](O)[C@H](O)[C@H](O)CO)c(O)c4-c4cc3ccc4O)[C@H](O)c3ccc(c(Cl)c3)Oc3cc2cc(c3OC2O[C@H](CO)C(O)C(O)[C@H]2O[C@@H]2CC(C)[C@@H](O)C(C)(NCc3cccc4ccccc34)C2)Oc2ccc(cc2Cl)[C@H]1O (stereo partly shown) [Van027]			
4 (≈ 2.19 µM)	8 (≈ 4.38 µM)	C#Cc1ccc(CNC2(C)C[C@H](O[C@H]3C(Oc4c5cc6cc4Oc4ccc(cc4Cl)[C@@H](O)[C@@H](NC(=O)[C@@H](CC(C)C)NC)C(=O)N[C@@H](CC(N)=O)C(=O)N[C@H]6C(=O)N[C@H]4C(=O)N[C@H](C(=O)N[C@H](C(=O)O)c6cc(O)c(CNCCCNC(=O)[C@H](O)[C@@H](O)[C@H](O)[C@H](O)CO)c(O)c6-c6cc4ccc6O)[C@H](O)c4ccc(c(Cl)c4)O5)O[C@H](CO)C(O)C3O)CC(C)[C@H]2O)cc1 (stereo partly shown) [Van029]			
1 (≈ 0.534 µM)	2 (≈ 1.07 µM)	CCCCOc1ccc(CNC2(C)C[C@H](O[C@H]3C(Oc4c5cc6cc4Oc4ccc(cc4Cl)[C@@H](O)[C@@H](NC(=O)[C@@H](CC(C)C)NC)C(=O)N[C@@H](CC(N)=O)C(=O)N[C@H]6C(=O)N[C@H]4C(=O)N[C@H](C(=O)N[C@H](C(=O)O)c6cc(O)c(CNCCCNC(=O)[C@H](O)[C@@H](O)[C@H](O)[C@H](O)CO)c(O)c6-c6cc4ccc6O)[C@H](O)c4ccc(c(Cl)c4)O5)O[C@H](CO)C(O)C3O)CC(C)[C@H]2O)cc1 (stereo partly shown) [Van030]			
0.125 (≈ 0.0668 µM)	0.5 (≈ 0.267 µM)	CCCCCc1ccc(CNC2(C)C[C@H](O[C@H]3C(Oc4c5cc6cc4Oc4ccc(cc4Cl)[C@@H](O)[C@@H](NC(=O)[C@@H](CC(C)C)NC)C(=O)N[C@@H](CC(N)=O)C(=O)N[C@H]6C(=O)N[C@H]4C(=O)N[C@H](C(=O)N[C@H](C(=O)O)c6cc(O)c(CNCCCNC(=O)[C@H](O)[C@@H](O)[C@H](O)[C@H](O)CO)c(O)c6-c6cc4ccc6O)[C@H](O)c4ccc(c(Cl)c4)O5)O[C@H](CO)C(O)C3O)CC(C)[C@H]2O)cc1 (stereo partly shown) [Van031]			
